Earlier results on 1 compound are cited in patent publication US6730813B2, “Method for producing n-(phosphonomethyl) glycine” (Monsanto Technology LLC, priority 2000, dated 2004).

The structures appear in SMILES notation. Read-outs that look alike come from different tables or passages of the source.

Regarding `O=C(O)CNCP(=O)(O)O` [glyphosate, N-(phosphonomethyl)glycine], the “solubility in organic solvents” value (organic solvents, compared with water) is reported as “much lower”. The solubility in water by setting is: (5° C.) 0.8%; (20° C.) 1.1%; (95° C.) 6.5%.
